The values below come from patent publication US5830910A (priority 1995, dated 1998).

Entries after “also recorded” stand apart in the source; their conditions may differ.

For assay [1], the system named is actin filaments in cultured hippocampal neurons. The experiment in a line: phalloidin fluorescence of actin filaments, neurons. The class given is cell-based, rat. How it is done: Hippocampal cells were exposed to cytochalasin D and then fixed for 30 min in 4% paraformaldehyde/phosphate-buffered saline. Cell membranes were permeabilized by incubating for 5 min in a solution of 0.2% Triton X-100 in phosphate-buffered saline. Cells were then incubated for 30 min in PBS containing 0.005 U/ml fluorescein-phalloidin (Molecular Probes). Cells were rinsed in water and mounted in Vectashield antifade solution (Vector Laboratories) . Fluorescence images were acquired using a Sarastro 2000 confocal laser scanning microscope with a 60x oil-immersion objective. All images were acquired using identical settings for excitation intensity and detector gain.
FIG. 4. (A) Micrographs are confocal laser scanning microscope images of cultured hippocampal cells stained with fluorescein-labeled phalloidin. Cells were exposed for 3 h to either vehicle (control; left) or 100 nM cytochalasin D (right) prior to staining with phalloidin. The top micrographs show several neurons (arrowheads point to neuronal cell bodies); note reduction in phalloidin fluorescence in cytochalasin-treatedneurons.
(B) Cytochalasin D and glutamate cause a reduction in neuronal phalloidin fluorescence. […] Values represent the mean fluorescence intensity per neuronal cell body (±SEM; n=15-18). […]

The subject of assay [2] is hippocampal region CA3 neurons. Nature of the assay: kainate lesion paradigm, CA3 neurons. The class given is in vivo, rat (Sprague-Dawley). The note with it: for neurons damaged by kainate: intraventricular. As for the experimental part: A kainate lesion paradigm was employed in adult rats to determine whether cytochalasin D was also excitoprotective. Twenty-four adult male Sprague-Dawley rats (250-300 g) were divided into the indicated experimental groups (4-5 rats/group). Kainate (0.5 µg/[…]) was injected stereotaxically into region CA1 of the right hippocampus of anesthetized rats. Cytochalasin D (the indicated concentration in 1 μl of saline-1% DMSO) or vehicle was infused into the right lateral ventricle during a 5-10 min period immediately following kainate injection. Rats were killed 48 hr later and perfused transcardially with 4% paraformaldehyde. Brain sections (30 μm) were stained with cresyl violet and stained neurons in three adjacent 40X microscope fields of hippocampal region CA3 were counted (5 sections/rat) . The neuronal counts were performed in sections removed approximately 200-400 μm from the injection site. This method results in highly reproducible, 75-99%, neuronal loss in the CA3 region in over 99% of the rats injected with kainate (calculations based on 302 rats receiving intra-hippocampal kainate). […] Approximately 80% of the neurons were killed by kainate in control animals receiving an intracerebroventricular infusion of saline immediately following kainate administration.
Cresyl violet-stained coronal sections from brains of rats administered kainate alone (left) of kainate plus cytochalasin D (CyD; right). […] Lower micrographs are high magnification of a region of CA3 from the sections shown in the upper panels.
FIG. 3. Counts of viable neurons were made in region CA3 of Sham-operated rats, and rats infused intraventricularly with vehicle or increasing concentration of cytochalasin D […] unilateral kainate injection into region CA1 of the hippocampus. Neuronal survival in the kainate injected hippocampus is expressed as a percentage of neurons in the contralateral hippocampus. Values represent the mean and SEM (4 or 5 rats/group). *p<0.01 compared to value for sham rats. **p<0.01 compared to value for vehicle-infused rats. (ANOVA with Scheffe's post-hoc test).

The test system of assay [3] is cultured hippocampal neurons. Nature of the assay: calcium ionophore A23187 neurotoxicity. The class given is cell-based, rat. The note with it: 100 nM, 1 h pretreatment. The source says: Dissociated embryonic rat hippocampal cell cultures were established and maintained. All procedures conformed with the NIH Guide for the Care and Use of Laboratory Animals and were approved by the University of Kentucky Animal Care and Use Committee. Cultures were maintained on a polyethyleneimine-coated substrate in plastic 35-mm dishes or 96 wall plates (for cell survival studies) or glass-bottom 35-mm dishes (for [Ca^2+ ]i imaging studies). The cell density was ^~ 70-100 cells/mm^2. Cells were maintained in Eagle's minimum essential medium supplemented 10% with fetal bovine serum and containing 20 mM sodium pyruvate. […] Aβ25-35 (Bachem, lot ZJ744) and Aβ1-40 (Bachem, lot ZK600) were stored in the lyophilized form, and stocks were prepared immediately before use by dissolving the peptide at a concentration of 1 mM in sterile distilled water. […] Glutamate and colchicine (Sigma) were prepared as 200-500x stocks in saline. Cytochalasins D and E (Sigma) and calcium ionophore 4-bromo-A23187 (Calbiochem) were prepared as 500x stocks in dimethyl sulfoxide. Vitamin E (α-tocopherol; Sigma) was prepared as a 500x stock in ethanol. Nordihydroguaiaretic acid and FeSo4 were prepared as 500x stocks in sterile water.
Neuronal survival was quantified by counting viable neurons in the same microscope fields (10x objective) immediately before experimental treatment and at time points after treatment. In addition, cells were grown in 96-well plates and Alamar blue fluorescence (Alamar Laboratories)was quantified by using a fluorescence plate reader. Alamar Blue is a non-fluorescent substrate that, after reduction by cell metabolites, becomes fluorescent. […] Viability of the remaining neurons was assessed by morphological criteria. […] Survival values were expressed as percentages of the initial number of neurons present before experimental treatment. […]
FIG. 7. Cultures were pretreated for 1 h with 0.2% dimethylsulfoxide (control) or 100 nM cytochalasin D. Calcium ionophore A23187 was then added at the indicated concentrations and neuronal survival was assessed 8 h later. […]

For assay [4], the system named is cultured hippocampal neurons. Nature of the assay: neurotoxicity of combined exposure to Aβ and glutamate. The note with it: 100 nM; 50 μM Aβ plus 20 μM glutamate, 48 h. The class given is cell-based, rat. An excerpt:
Dissociated embryonic rat hippocampal cell cultures were established and maintained. All procedures conformed with the NIH Guide for the Care and Use of Laboratory Animals and were approved by the University of Kentucky Animal Care and Use Committee. Cultures were maintained on a polyethyleneimine-coated substrate in plastic 35-mm dishes or 96 wall plates (for cell survival studies) or glass-bottom 35-mm dishes (for [Ca^2+ ]i imaging studies). The cell density was ^~ 70-100 cells/mm^2. Cells were maintained in Eagle's minimum essential medium supplemented 10% with fetal bovine serum and containing 20 mM sodium pyruvate. […]
Neuronal survival was quantified by counting viable neurons in the same microscope fields (10x objective) immediately before experimental treatment and at time points after treatment. In addition, cells were grown in 96-well plates and Alamar blue fluorescence (Alamar Laboratories)was quantified by using a fluorescence plate reader. […] Viability of the remaining neurons was assessed by morphological criteria. […] Survival values were expressed as percentages of the initial number of neurons present before experimental treatment. […]
FIG. 13. […] Neuronal survival was assessed 48 h after treatment. […]

In the case of `C=C1[C@@H](C)[C@H]2[C@H](Cc3ccccc3)NC(=O)[C@]23[C@H](OC(C)=O)/C=C/[C@@](C)(O)C(=O)[C@@H](C)C/C=C/[C@H]3[C@@H]1O` [Cytochalasin D, cytochalasin D], the “phalloidin staining in neurons” value is given as “pronounced reduction in phalloidin staining in neurons; also recorded: loss of fluorescence” in assay [1] (100 nM, 1 h) and “concentration-dependent reduction in phalloidin staining in neurons” in assay [1] (10-1000 nM, 3 h). In addition, the “neurons damaged by kainate” value in assay [2] (0.1 μg) and in assay [2] (1.00 μg) was 20% throughout. For the same compound, the “reduction in neuronal injury to CA3 neurons after kainate” value in assay [2] (intraventricular infusion, dose related, 48 hr) was “highly significant reduction in neuronal injury to CA3 neurons; also recorded: marked reduction in the damage”. In assay [3], the “protection against A23187 neurotoxicity” value was “essentially identical to that in control cultures”. In addition, in assay [4], the “effect on neurotoxicity of combined Aβ and glutamate” value was “attenuated significantly”.
